Key:
Rattus norvegicus [1] = species on record: Rattus norvegicus; test: Biodistribution in rat spleen after 5 min time interval; format: ADME, organism-based; details: in vivo
Rattus norvegicus [2] = species on record: Rattus norvegicus; test: Biodistribution in rat liver after 90 min time interval; format: ADME, organism-based; details: in vivo, 1.5 h
Rattus norvegicus [3] = species on record: Rattus norvegicus; test: Biodistribution in rat post-CTX after 15 min time interval; format: ADME, organism-based; details: in vivo, 0.25 h
Rattus norvegicus [4] = species on record: Rattus norvegicus; test: Biodistribution in rat adrenal after 15 min time interval; format: ADME, organism-based; details: in vivo, 0.25 h
Rattus norvegicus [5] = species on record: Rattus norvegicus; test: Biodistribution in rat hypothalamus after 30 min time interval; format: ADME, organism-based; details: in vivo, 0.5 h
Rattus norvegicus [6] = species on record: Rattus norvegicus; test: Biodistribution in rat muscle after 60 min time interval; format: ADME, organism-based, Muscle tissue; details: in vivo, 1 h
Rattus norvegicus [7] = species on record: Rattus norvegicus; test: Biodistribution in rat cerebellem after 15 min time interval; format: ADME, organism-based, Cerebellum; details: in vivo, 0.25 h
Rattus norvegicus [8] = species on record: Rattus norvegicus; test: Biodistribution in rat heart after 90 min time interval; format: ADME, organism-based; details: in vivo, 1.5 h
Rattus norvegicus [9] = species on record: Rattus norvegicus; test: Biodistribution in rat post-CTX after 5 min time interval; format: ADME, organism-based; details: in vivo
Rattus norvegicus [10] = species on record: Rattus norvegicus; test: Biodistribution in rat testes after 15 min time interval; format: ADME, organism-based, Testis; details: in vivo, 0.25 h
Rattus norvegicus [11] = species on record: Rattus norvegicus; test: Biodistribution in rat cerebellem after 30 min time interval; format: ADME, organism-based, Cerebellum; details: in vivo, 0.5 h
Rattus norvegicus [12] = species on record: Rattus norvegicus; test: Biodistribution in rat pituitary after 90 min time interval; format: ADME, organism-based; details: in vivo, 1.5 h
Rattus norvegicus [13] = species on record: Rattus norvegicus; test: Biodistribution in rat anti-CTX after 5 min time interval; format: ADME, organism-based; details: in vivo
Rattus norvegicus [14] = species on record: Rattus norvegicus; test: Biodistribution in rat intestine after 60 min time interval; format: ADME, organism-based; details: in vivo, 1 h
Rattus norvegicus [15] = species on record: Rattus norvegicus; test: Biodistribution in rat testes after 5 min time interval; format: ADME, organism-based, Testis; details: in vivo
Rattus norvegicus [16] = species on record: Rattus norvegicus; test: Biodistribution in rat kidney after 90 min time interval; format: ADME, organism-based; details: in vivo, 1.5 h
Rattus norvegicus [17] = species on record: Rattus norvegicus; test: Biodistribution in rat pituitary after 5 min time interval; format: ADME, organism-based, Pituitary gland; details: in vivo
Rattus norvegicus [18] = species on record: Rattus norvegicus; test: Biodistribution in rat adrenal after 90 min time interval; format: ADME, organism-based; details: in vivo, 1.5 h
Rattus norvegicus [19] = species on record: Rattus norvegicus; test: Biodistribution in rat hypothalamus after 15 min time interval; format: ADME, organism-based; details: in vivo, 0.25 h
Rattus norvegicus [20] = species on record: Rattus norvegicus; test: Biodistribution in rat heart after 15 min time interval; format: ADME, organism-based; details: in vivo, 0.25 h
Rattus norvegicus [21] = species on record: Rattus norvegicus; test: Biodistribution in rat spleen after 30 min time interval; format: ADME, organism-based; details: in vivo, 0.5 h
Rattus norvegicus [22] = species on record: Rattus norvegicus; test: Biodistribution in rat blood after 5 min time interval; format: ADME, organism-based; details: in vivo
Rattus norvegicus [23] = species on record: Rattus norvegicus; test: Biodistribution in rat lung after 90 min time interval; format: ADME, organism-based; details: in vivo, 1.5 h
Rattus norvegicus [24] = species on record: Rattus norvegicus; test: Biodistribution in rat anti-CTX after 15 min time interval; format: ADME, organism-based; details: in vivo, 0.25 h
Rattus norvegicus [25] = species on record: Rattus norvegicus; test: Biodistribution in rat cerebellem after 90 min time interval; format: ADME, organism-based, Cerebellum; details: in vivo, 1.5 h
Rattus norvegicus [26] = species on record: Rattus norvegicus; test: Biodistribution in rat anti-CTX after 60 min time interval; format: ADME, organism-based; details: in vivo, 1 h
Rattus norvegicus [27] = species on record: Rattus norvegicus; test: Biodistribution in rat cerebellem after 60 min time interval; format: ADME, organism-based, Cerebellum; details: in vivo, 1 h
Rattus norvegicus [28] = species on record: Rattus norvegicus; test: Biodistribution in rat striatum after 30 min time interval; format: ADME, organism-based; details: in vivo, 0.5 h
Rattus norvegicus [29] = species on record: Rattus norvegicus; test: Biodistribution in rat trachea after 30 min time interval; format: ADME, organism-based; details: in vivo, 0.5 h
Rattus norvegicus [30] = species on record: Rattus norvegicus; test: Biodistribution in rat trachea after 5 min time interval; format: ADME, organism-based; details: in vivo
Rattus norvegicus [31] = species on record: Rattus norvegicus; test: Biodistribution in rat thalamus after 60 min time interval; format: ADME, organism-based; details: in vivo, 1 h
Rattus norvegicus [32] = species on record: Rattus norvegicus; test: Biodistribution in rat post-CTX after 90 min time interval; format: ADME, organism-based; details: in vivo, 1.5 h
Rattus norvegicus [33] = species on record: Rattus norvegicus; test: Biodistribution in rat pituitary after 15 min time interval; format: ADME, organism-based, Pituitary gland; details: in vivo, 0.25 h
Rattus norvegicus [34] = species on record: Rattus norvegicus; test: Biodistribution in rat liver after 15 min time interval; format: ADME, organism-based; details: in vivo, 0.25 h
Rattus norvegicus [35] = species on record: Rattus norvegicus; test: Biodistribution in rat thalamus after 15 min time interval; format: ADME, organism-based; details: in vivo, 0.25 h
Rattus norvegicus [36] = species on record: Rattus norvegicus; test: Biodistribution in rat liver after 5 min time interval; format: ADME, organism-based; details: in vivo
Rattus norvegicus [37] = species on record: Rattus norvegicus; test: Biodistribution in rat spleen after 90 min time interval; format: ADME, organism-based; details: in vivo, 1.5 h
Rattus norvegicus [38] = species on record: Rattus norvegicus; test: Biodistribution in rat hypothalamus after 60 min time interval; format: ADME, organism-based; details: in vivo, 1 h
Rattus norvegicus [39] = species on record: Rattus norvegicus; test: Biodistribution in rat post-CTX after 60 min time interval; format: ADME, organism-based; details: in vivo, 1 h
Rattus norvegicus [40] = species on record: Rattus norvegicus; test: Biodistribution in rat trachea after 15 min time interval; format: ADME, organism-based; details: in vivo, 0.25 h
Rattus norvegicus [41] = species on record: Rattus norvegicus; test: Biodistribution in rat post-CTX after 30 min time interval; format: ADME, organism-based; details: in vivo, 0.5 h
Rattus norvegicus [42] = species on record: Rattus norvegicus; test: Biodistribution in rat trachea after 60 min time interval; format: ADME, organism-based; details: in vivo, 1 h
Rattus norvegicus [43] = species on record: Rattus norvegicus; test: Biodistribution in rat thalamus after 90 min time interval; format: ADME, organism-based; details: in vivo, 1.5 h
Rattus norvegicus [44] = species on record: Rattus norvegicus; test: Biodistribution in rat intestine after 30 min time interval; format: ADME, organism-based; details: in vivo, 0.5 h
Rattus norvegicus [45] = species on record: Rattus norvegicus; test: Biodistribution in rat testes after 90 min time interval; format: ADME, organism-based, Testis; details: in vivo, 1.5 h
Rattus norvegicus [46] = species on record: Rattus norvegicus; test: Biodistribution in rat anti-CTX after 90 min time interval; format: ADME, organism-based; details: in vivo, 1.5 h
Rattus norvegicus [47] = species on record: Rattus norvegicus; test: Biodistribution in rat blood after 60 min time interval; format: ADME, organism-based; details: in vivo, 1 h
Rattus norvegicus [48] = species on record: Rattus norvegicus; test: Biodistribution in rat cerebellem after 5 min time interval; format: ADME, organism-based, Cerebellum; details: in vivo
Rattus norvegicus [49] = species on record: Rattus norvegicus; test: Biodistribution in rat anti-CTX after 30 min time interval; format: ADME, organism-based; details: in vivo, 0.5 h
Rattus norvegicus [50] = species on record: Rattus norvegicus; test: Biodistribution in rat hippocampus after 5 min time interval; format: ADME, organism-based; details: in vivo

## [11CH3]Oc1ccc(CCCn2ncc3c2nc(N)n2nc(-c4ccco4)nc32)cc1
Rattus norvegicus [1]
  ID/g: 0.18%
Rattus norvegicus [2]
  ID/g: 0.37%
Rattus norvegicus [3]
  ID/g: 0.1%
Rattus norvegicus [4]
  ID/g: 0.44%
Rattus norvegicus [5]
  ID/g: 0.04%
Rattus norvegicus [6]
  ID/g: 0.04%
Rattus norvegicus [7]
  ID/g: 0.1%
Rattus norvegicus [8]
  ID/g: 0.04%
Rattus norvegicus [9]
  ID/g: 0.19%
Rattus norvegicus [10]
  ID/g: 0.13%
Rattus norvegicus [11]
  ID/g: 0.05%
Rattus norvegicus [12]
  ID/g: 0.03%
Rattus norvegicus [13]
  ID/g: 0.18%
Rattus norvegicus [14]
  ID/g: 0.1%
Rattus norvegicus [15]
  ID/g: 0.12%
Rattus norvegicus [16]
  ID/g: 0.11%
Rattus norvegicus [17]
  ID/g: 0.18%
Rattus norvegicus [18]
  ID/g: 0.14%
Rattus norvegicus [19]
  ID/g: 0.07%
Rattus norvegicus [20]
  ID/g: 0.15%
Rattus norvegicus [21]
  ID/g: 0.07%
Rattus norvegicus [22]
  ID/g: 0.13%
Rattus norvegicus [23]
  ID/g: 0.23%
Rattus norvegicus [24]
  ID/g: 0.12%
Rattus norvegicus [25]
  ID/g: 0.02%
Rattus norvegicus [26]
  ID/g: 0.02%
Rattus norvegicus [27]
  ID/g: 0.02%
Rattus norvegicus [28]
  ID/g: 0.2%
Rattus norvegicus [29]
  ID/g: 0.09%
Rattus norvegicus [30]
  ID/g: 0.17%
Rattus norvegicus [31]
  ID/g: 0.02%
Rattus norvegicus [32]
  ID/g: 0.02%
Rattus norvegicus [33]
  ID/g: 0.06%
Rattus norvegicus [34]
  ID/g: 0.74%
Rattus norvegicus [35]
  ID/g: 0.1%
Rattus norvegicus [36]
  ID/g: 0.94%
Rattus norvegicus [37]
  ID/g: 0.05%
Rattus norvegicus [38]
  ID/g: 0.02%
Rattus norvegicus [39]
  ID/g: 0.02%
Rattus norvegicus [40]
  ID/g: 0.12%
Rattus norvegicus [41]
  ID/g: 0.05%
Rattus norvegicus [42]
  ID/g: 0.04%
Rattus norvegicus [43]
  ID/g: 0.02%
Rattus norvegicus [44]
  ID/g: 0.25%
Rattus norvegicus [45]
  ID/g: 0.03%
Rattus norvegicus [46]
  ID/g: 0.02%
Rattus norvegicus [47]
  ID/g: 0.03%
Rattus norvegicus [48]
  ID/g: 0.19%
Rattus norvegicus [49]
  ID/g: 0.06%
Rattus norvegicus [50]
  ID/g: 0.17%

Reference: ChEMBL document CHEMBL1133517, “Design, radiosynthesis, and biodistribution of a new potent and selective ligand for in vivo imaging of the adenosine A(2A) receptor system using positron emission tomography” (J Med Chem, 2000)
